Source: a melting point compilation (Tetko et al.; mined from patent text by program, amines drawn as free bases though some values may be those of a salt)

melting point [°C] | SMILES
181 to 182 | CCOC(=O)c1c(CS(=O)(=O)c2nc3ccccc3[nH]2)nc2cc(OC)c(OC)cc2c1-c1ccc(OC)c(OC)c1
261 | Nc1ccc(NC(=O)c2ccc(C(=O)Nc3ccc(N)cc3Cl)cc2)c(Cl)c1
185 to 186 | CCCc1c(O)ccc2[nH]c(C(=O)OCC)cc12
206 to 208 | CCOC(=O)C1CCc2c(oc3ccc(C(N)=O)cc23)C1 (centres undefined)
108 to 110 | COC(=O)CSCc1cccc(-c2nc(=O)c3ccccc3s2)n1
159 to 161 | CCOC(=O)c1c[nH]cc1-c1ccccc1[N+](=O)[O-]
205 to 207 | O=C1NC(=O)c2cc(Nc3ccccc3)c(Nc3ccccc3)cc21
153 to 158 | CCOC(=O)C1=C(COCc2cc(=O)n(C)c(C)n2)NC(C)=C(C(=O)OC)C1c1cccc(Cl)c1Cl (centres undefined)
151 to 152 | Nc1sc2c(c1C(=O)c1ccc(OCc3ccccc3)cc1)CCN(C(=O)OCc1ccccc1)C2
199 to 201 | NS(=O)(=O)c1nnc(NC(=O)CNC(=O)OCc2ccccc2)s1
211 | Fc1cc(N2CCN(C3CCN(c4cccc5cccnc45)CC3)CC2)c2ncccc2c1
226 to 228 | O=C1NC(=O)C(Cc2c[nH]c3ccc(Cl)cc23)N1 (centres undefined)
173 to 175 | O=S(=O)(c1ccccc1)n1ccc2ccc3c4cc(Br)ccc4[nH]c3c21
142 to 145 | NCCN1C(=O)CN(c2ccc(Cl)cc2)C1=O
59 to 62 | C#CC1(OCc2ccccc2F)CCN(C(C)=O)CC1
110 to 112 | CCOC(=O)c1cn(C(=O)c2ccccc2)c2sc(-c3ccc(OC)cc3)c(C)c2c1=O

The next lines start with the compound.

SMILES | melting point [°C]
CC(=O)c1c(-c2ccccc2)[nH]c(-c2ccncc2)c1C | 202 to 203
CC(C(=O)O)c1cc(Cl)c(N)cc1Cl (centres undefined) | 140 to 141
CCS(=O)(=O)C1=NCN(S(=O)(=O)CC)S1 | 42
C#Cc1c(O)c(C)c(C)c(O)c1C#C | 152
Cc1c(Cc2cccc(C(F)(F)F)c2)sc2c(-c3cccc(C(=O)NCCC#N)c3)cccc12 | 135 to 136
CCOc1nn(Cc2ccnc(OCc3nc(-c4ccco4)oc3C)c2)cc1CCC(=O)O | 138 to 139
CSC(=S)NCc1cn(-c2ccc(N3CCOCC3)c(F)c2)nn1 | 148
CCN(CC)CCN1NC(N)=c2cc3c(nc21)=CC(O)(OC)C=C3 (centres undefined) | 232 to 235
CCCCn1c(C(=O)c2cc(C)cc(CCC#N)c2)c(C(C)C)c(=O)[nH]c1=O | 172 to 173
CCNc1cccc(NC(=O)COC)c1C#N | 118 to 119
CC(C)(C)OC(=O)N1[C@@H](Cc2cccc([Si](C)(C)C)c2)C(=O)O[C@H](c2ccccc2)[C@@H]1c1ccccc1 | 88 to 90
NC(=O)C1CCc2ccc(C(=O)c3ccccc3)cc21 (centres undefined) | 195 to 197
CCOC(=O)c1ncn(-c2nncs2)c1S(N)(=O)=O | 168 to 171
CCn1cc(C(=O)O)c(=O)c2cc(Cl)c(N3CCNCC3)cc21 | 228 to 232
CNC(=NCCCCc1nccs1)NC#N | 87 to 89.5
CCN(CC)Cc1ccc2nc(-c3ccccc3)cc(OCc3ccccc3)c2c1 | 108 to 109
NC(=O)Cc1cccc(Cn2ccc(OCc3ccc(F)cc3F)c(Br)c2=O)c1 | 164 to 167

SMILES | melting point [°C]
CCOC(=O)N1N=C(c2ccc(N)cc2)c2cc(Br)ccc2CC1C (centres undefined) | 114 to 117
COc1cccc(-c2cnc(-c3ccoc3)s2)c1 | 61 to 62
Cn1c(C(F)(F)F)cc(=O)n(-c2cc(S(=O)(=O)n3cccn3)c(Cl)cc2F)c1=O | 172
Cc1cc(C)c(C(=O)Oc2ccccc2)c(O)c1C | 74
CCCCCCCCCCCCCCCCCCNC(=O)NCCCN | 116 to 140
CC(C)CC(=O)Nc1c(C(=O)c2ccoc2)[nH]c2cc(Cl)ccc12 | 202 to 203
CCOC(=O)C1CCCCN1C(=O)[C@H](CCCNC(=N)N)NS(=O)(=O)c1ccc2cc(OC)ccc2c1 (some centres undefined) | 192 to 193
CNC(=O)N/N=C1/C(=O)N(CCN(C(C)C)C(C)C)c2ccccc21 | 175 to 177
CC1CCCNC(=O)C1 (centres undefined) | 87 to 100
CC(=S)N[C@@H]1c2cc(C#N)ccc2OC(C)(C)[C@H]1O (relative stereo) | 176 to 180
Cn1cncc1CCNC(=O)c1[nH]c2ccc(Cl)cc2c1S(=O)(=O)c1ccccc1 | 257 to 258
CC(=O)OCC(=O)C1(OC(=O)c2ccccc2)CCC2C3CC(C)C4=CC(=O)CCC4(C)C3C(O)CC21C (centres undefined) | 210
O=[N+]([O-])c1ccc2oc(CO)cc2c1 | 115 to 116
Cc1ccc(N(c2ccc(C)c(C)c2)c2cccc3ccccc23)cc1C | 125 to 127
CCN(CC)CCCCNc1ncc2c(n1)NC(=O)N(c1cc(OC)cc(OC)c1)C2 | 203 to 207
CCOC(=O)c1c(CN(CC)CC)nc2sc(C)c(C)c2c1-c1ccc(OC)c(OC)c1 | 110 to 111
